Data set [1] can be described thus: logP determination by HPLC on reversed-phase columns (C 18), EEC Directive 79/831 Annex V.A8. It is filed as physicochemical.
Data set [2] relates to green peach aphid (Myzus persicae). Put plainly: Myzus test (MYZUPE spray treatment). The note with it: foliar, 144 h, read-out: activity (aphids killed). It is filed as in vivo. Here is the method:
After 6 days the activity is determined, in %.

In data set [3] the test system is caterpillars of the army worm (Spodoptera frugiperda). Put plainly: Spodoptera frugiperda test (SPODFR spray treatment). The note with it: foliar, 168 h, read-out: activity (caterpillars killed). It is filed as in vivo.
For data set [4], the system named is larvae of the mustard beetle (Phaedon cochleariae). Description: Phaedon test (PHAECO spray treatment). Particulars: in Brassica rapa, foliar, 168 h, read-out: activity (beetle larvae killed).
Where [5] appears, read: HPLC, reversed-phase C 18, table value without method mark, read-out: logP.
[6] abbreviates: application rate 100 g/ha, after 6 days, Chinese cabbage leaf discs, spray.
[7] abbreviates: application rate 100 g/ha, after 7 days, maize leaf discs, spray.

Read-outs that look alike come from different tables or passages of the source.

In the case of `COC(=O)N(C)NC(=O)c1cc(Cl)cc(Cl)c1NC(=O)c1cc(Cn2nc(C(F)(F)F)nc2C)nn1-c1ncccc1Cl` [Example 21], the chromatographic logP in data set [1] came to 2.51. In addition, the pest or weed control at 100 g/ha is 90% in data set [2] (in Brassica rapa) and 100% in data set [3] (in Zea mays).

Consider `COC(=O)N(C)NC(=O)c1cc(C#N)cc(C)c1NC(=O)c1cc(Cn2cc(C(F)(F)F)nn2)nn1-c1ncccc1Cl` [Example 47], for which the chromatographic logP in data set [1] is 2.3. In addition, the pest or weed control at 100 g/ha in data set [2] (in Brassica rapa) turned out to be 90%; in data set [3] (in Zea mays), 100%; in data set [4] it was 100%.

In the case of `COC(=O)N(C)N(C)C(=O)c1cc(Cl)cc(C)c1NC(=O)c1cc(Cn2cc(C3CC3)nn2)nn1-c1ncccc1Cl` [Example 39], in data set [1], the chromatographic logP stood at 2.71. The pest or weed control at 100 g/ha in data set [2] (in Brassica rapa) came out at 80%.

Turning to `COC(=O)N(C)NC(=O)c1cc(Cl)cc(C)c1NC(=O)c1cc(Cn2cc(C(C)(C)C)nn2)nn1-c1ncccc1Cl` [Example 24], in data set [1], the chromatographic logP turned out to be 2.53.

Turning to `COC(=O)N(C)NC(=O)c1cc(C#N)cc(C)c1NC(=O)c1cc(Cn2cnc(C(F)(F)F)c2)nn1-c1ncccc1Cl` [Example 78], the chromatographic logP in data set [1] came to 2.1. For the same molecule, in data set [2] (in Brassica rapa), the pest or weed control at 100 g/ha came to 90%.

For `COC(=O)N(C)NC(=O)c1cc(Cl)cc(C)c1NC(=O)c1cc(Cn2nnc(C(F)(F)F)n2)nn1-c1ccccc1Cl` [Example 85], the chromatographic logP in data set [1] (setting [5]) amounted to 3.34. The pest or weed control at 100 g/ha in data set [2] (setting [6]), in data set [3] (setting [7]) and in data set [4] was 100% each time.

As to `COC(=O)N(C)NC(=O)c1cc(Cl)cc(C)c1NC(=O)c1cc(CNS(=O)(=O)c2ccccc2C(F)(F)F)nn1-c1ncccc1Cl` [Example 70], the chromatographic logP in data set [1] (setting [5]) was 2.81.

`COC(=O)NNC(=O)c1cc(I)cc(C)c1NC(=O)c1cc(Cn2nnc(C(F)(F)C(F)(F)C(F)(F)F)n2)nn1-c1ncccc1Cl` [Example 2, Methyl N′-(2-{[2-(3-chloropyridin-2-yl)-5-(5-heptalluoropropyltetrazol-2-ylmethyl)-2H-pyrazole-3-carbonyl]amino}-5-iodo-3-methylbenzoyl)hydrazincarboxylate]: in data set [1] (HPLC, reversed-phase C 18, value in text of the Preparation Examples, read-out: logP), the chromatographic logP stood at 3.58. In addition, the pest or weed control at 100 g/ha in data set [3] (in Zea mays) and in data set [4] was 100% throughout.

For the molecule `COC(=O)N(C)NC(=O)c1cc(Br)cc(C)c1NC(=O)c1cc(Cn2nnc(C(F)(F)C(F)(F)F)n2)nn1-c1ncccc1Cl` [Example 53], in data set [1], the chromatographic logP was found to be 3.4. Besides, the pest or weed control at 100 g/ha in data set [2] (in Brassica rapa), in data set [3] (in Zea mays) and in data set [4] was 100% each time.

As to `COC(=O)NNC(=O)c1cc(Cl)cc(C)c1NC(=O)c1cc(Cn2cc(C(C)(C)C)nn2)nn1-c1ncccc1Cl` [Example 62], the chromatographic logP in data set [1] worked out at 2.38. In addition, in data set [3] (in Zea mays), the pest or weed control at 100 g/ha amounted to 100%.

Regarding `COC(=O)NNC(=O)c1cc(C#N)cc(C)c1NC(=O)c1cc(Cn2nnc(C(F)(F)F)n2)nn1-c1ccccc1Cl` [Example 84], the pest or weed control at 100 g/ha in data set [2] (setting [6]), in data set [3] (setting [7]) and in data set [4] was 100% each time.

Consider `COC(=O)N(C)NC(=O)c1cc(C#N)cc(C)c1NC(=O)c1cc(Cn2nnc(C(F)(F)F)n2)nn1-c1ccccc1Cl` [Example 56], for which the chromatographic logP in data set [1] (setting [5]) was determined as 2.97.

In data set [1], `COC(=O)NNC(=O)c1cc(I)cc(C)c1NC(=O)c1cc(Cn2cnc(C(F)(F)F)c2)nn1-c1ncccc1Cl` [Example 80] had a chromatographic logP of 2.38.

Take `COC(=O)N(C)NC(=O)c1cc(Cl)cc(Cl)c1NC(=O)c1cc(Cn2nc(C(F)(F)F)c([N+](=O)[O-])c2C)nn1-c1ncccc1Cl` [Example 19]: in data set [1] (setting [5]), the chromatographic logP was 3.11. In addition, the pest or weed control at 100 g/ha in data set [3] (setting [7]) and in data set [4] was 100% throughout.

For `COC(=O)N(C)NC(=O)c1cc(Cl)cc(C)c1NC(=O)c1cc(Cn2nc(C(F)(F)C(F)(F)F)cc2C(F)(F)C(F)(F)F)nn1-c1ncccc1Cl` [Example 13], the chromatographic logP in data set [1] (setting [5]) was found to be 4.32. The pest or weed control at 100 g/ha in data set [3] (setting [7]) and in data set [4] was 100% in each case.

For the molecule `COC(=O)NNC(=O)c1cc(C#N)cc(C)c1NC(=O)c1cc(Cn2nnc(C(F)(F)F)n2)nn1-c1ccccc1Cl` [Example 58], the chromatographic logP in data set [1] (setting [5]) turned out to be 2.79.

In data set [1], `COC(=O)N(C)N(C)C(=O)c1cc(Cl)cc(C)c1NC(=O)c1cc(Cn2cc(C(C)(C)C)nn2)nn1-c1ncccc1Cl` [Example 40] returned a chromatographic logP of 2.98.

In the case of `COC(=O)N(C)NC(=O)c1cc(Cl)cc(Cl)c1NC(=O)c1cc(Cn2nc(C(F)(F)C(F)(F)F)cc2C(F)(F)C(F)(F)F)nn1-c1ncccc1Cl` [Example 14], the chromatographic logP in data set [1] (setting [5]) came out at 4.3. Besides, the pest or weed control at 100 g/ha in data set [3] (setting [7]) and in data set [4] was 100% throughout.

In turn, `COC(=O)N(C)NC(=O)c1cc(Cl)cc(Cl)c1NC(=O)c1cc(Cn2nnc(C(F)(F)F)n2)nn1-c1ncccc1Cl` [Example 43] gave a chromatographic logP in data set [1] of 2.92.

The molecule `COC(=O)N(C)NC(=O)c1cc(C#N)cc(C)c1NC(=O)c1cc(COc2ccc(C(F)(F)F)nn2)nn1-c1ncccc1Cl` [Example 22] showed a chromatographic logP in data set [1] of 2.53. Also, the pest or weed control at 100 g/ha in data set [2] (in Brassica rapa) and in data set [4] was 100% in each case.

For `COC(=O)N(C)NC(=O)c1cc(Cl)cc(C)c1NC(=O)c1cc(Cn2nc(C(F)(F)F)cc2C(F)(F)F)nn1-c1ncc(C(F)(F)F)cc1Cl` [Example 10], the chromatographic logP in data set [1] (setting [5]) was 4.35.

`COC(=O)N(C)NC(=O)c1cc(F)cc(C)c1NC(=O)c1cc(Cn2nnc(C(F)(F)C(F)(F)F)n2)nn1-c1ncccc1Cl` [Example 44] displayed a chromatographic logP in data set [1] of 3.05.

For the molecule `COC(=O)N(C)NC(=O)c1cc(Cl)cc(C)c1NC(=O)c1cc(Cn2cnc(SC)n2)nn1-c1ncccc1Cl` [Example 64], the chromatographic logP in data set [1] is 2.09.

As to `COC(=O)N(C)NC(=O)c1cc(Cl)cc(Cl)c1NC(=O)c1cc(Cn2nc(C(F)(F)F)cc2-c2ccccc2)nn1-c1ncccc1Cl` [Example 15], the chromatographic logP in data set [1] (setting [5]) is 3.82. In data set [3] (setting [7]), the pest or weed control at 100 g/ha was 100%.

`COC(=O)N(C)NC(=O)c1cc(Cl)cc(C)c1NC(=O)c1cc(CNS(=O)(=O)c2ccccc2)nn1-c1ncccc1Cl` [Example 71] returned a chromatographic logP in data set [1] of 2.42.

For `COC(=O)N(C)NC(=O)c1cc(C#N)cc(C)c1NC(=O)c1cc(Cn2cnc(C(F)(F)F)c2C(F)(F)F)nn1-c1ncccc1Cl` [Example 76], the chromatographic logP in data set [1] (setting [5]) amounted to 2.77.

`COC(=O)N(C)NC(=O)c1cc(Cl)cc(C)c1NC(=O)c1cc(Cn2nc(C)c(Br)c2C)nn1-c1ncccc1Cl` [Example 65] yielded a chromatographic logP in data set [1] of 2.97. In addition, the pest or weed control at 100 g/ha in data set [2] (in Brassica rapa) was 80%; in data set [3] (in Zea mays) it was 100%.

Regarding `COC(=O)N(C)NC(=O)c1cc(Cl)cc(Cl)c1NC(=O)c1cc(Cn2nc(C(F)(F)F)cc2C(F)(F)F)nn1-c1ncc(C(F)(F)F)cc1Cl` [Example 18], the chromatographic logP in data set [1] (setting [5]) stood at 4.32.

Turning to `COC(=O)N(C)NC(=O)c1cc(C#N)cc(C)c1NC(=O)c1cc(Cn2nnnc2C(F)(F)F)nn1-c1ccccc1Cl` [Example 55], the chromatographic logP in data set [1] (setting [5]) stood at 2.69.

In the case of `COC(=O)N(C)NC(=O)c1cc(I)cc(C)c1NC(=O)c1cc(Cn2cnc(C(F)(F)F)c2)nn1-c1ncccc1Cl` [Example 77], the chromatographic logP in data set [1] was determined as 2.56. The pest or weed control at 100 g/ha was 80% in data set [2] (in Brassica rapa) and 83% in data set [3] (in Zea mays).

These data come from US8410106B2, “Hydrazine-substituted anthranilic acid derivatives” (Bayer Cropscience AG, priority 2010, dated 2013).
